The target in data set [1] is α-glucosidase (Saccharomyces cerevisiae, UniProt P53341). As to the kind of experiment: In vitro α-glucosidase inhibition assay (p-nitrophenyl glucopyranoside substrate). The format is biochemical. Conditions: for inhibition at 500 µM: test compound 0.5mM, read-out: Percent Inhibition (0.5mM). As for the experimental part:
The reaction was initiated by the addition of 10 μL of 0.5mM substrate(p-nitrophenyl glucopyranoside, Sigma Inc.). […] All experiments were carried out in triplicates (mean ± SEM, n=3).

Sequence of α-glucosidase (P53341 whole entry): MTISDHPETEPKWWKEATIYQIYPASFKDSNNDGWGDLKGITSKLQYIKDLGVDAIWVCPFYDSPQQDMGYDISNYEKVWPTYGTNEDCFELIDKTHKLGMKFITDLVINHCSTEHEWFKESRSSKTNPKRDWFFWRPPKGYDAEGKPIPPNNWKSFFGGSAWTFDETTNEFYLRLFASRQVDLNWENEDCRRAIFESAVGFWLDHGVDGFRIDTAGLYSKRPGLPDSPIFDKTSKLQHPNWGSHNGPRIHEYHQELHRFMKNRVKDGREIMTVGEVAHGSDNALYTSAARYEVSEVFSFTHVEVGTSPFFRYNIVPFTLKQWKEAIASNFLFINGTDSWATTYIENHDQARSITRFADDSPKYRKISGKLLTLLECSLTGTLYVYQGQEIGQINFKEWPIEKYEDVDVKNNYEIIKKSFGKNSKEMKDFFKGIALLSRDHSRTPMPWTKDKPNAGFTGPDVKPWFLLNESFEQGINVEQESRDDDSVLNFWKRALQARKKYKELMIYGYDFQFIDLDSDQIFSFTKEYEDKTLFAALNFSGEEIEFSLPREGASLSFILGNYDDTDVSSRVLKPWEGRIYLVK

The term inhibition denotes the relative decrease from the control value, in per cent. The term melting point denotes the temperature, or range, at which the solid turns liquid. Take `O=C(Cc1ccc(O)c(O)c1)NN=Cc1ccccc1O` [Compound 1, (3,4-dihydroxyphenyl)-N'-(2-hydroxybenzylidene)acetohydrazide]: the melting point came out at 164 °C. Also, the inhibition at 500 µM in data set [1] stood at 86.3%.

The compound `O=C(Cc1ccc(O)c(O)c1)NN=Cc1ccc(O)cc1` [Compound 2, 2-(3,4-dihydroxyphenyl)-N'-(4-hydroxybenzylidene)acetohydrazide] returned a melting point of 210 °C. Also, in data set [1], the inhibition at 500 µM worked out at 90.4%.

As for `O=C(Cc1ccc(O)c(O)c1)NN=Cc1ccc(O)c(O)c1` [Compound 3, N'-(3,4-dihydroxybenzylidene)-2-(3,4-dihydroxyphenyl)acetohydrazide], the melting point stood at 212 °C. In data set [1], the inhibition at 500 µM came out at 91.3%.

Take `O=C(Cc1ccc(O)c(O)c1)NN=Cc1ccc(O)cc1O` [Compound 4, N'-(2,4-dihydroxybenzylidene)-2-(3,4-dihydroxyphenyl)acetohydrazide]: the melting point is 198 °C. The inhibition at 500 µM in data set [1] worked out at 95.7%.

For `O=C(Cc1ccc(O)c(O)c1)NN=Cc1ccc(O)c(O)c1O` [Compound 5, 2-(3,4-dihydroxyphenyl)-N'-(2,3,4-trihydroxybenzylidene)acetohydrazide], the melting point was 212 °C. Besides, the inhibition at 500 µM in data set [1] amounted to 96.1%.

In turn, `COc1cc(C=NNC(=O)Cc2ccc(O)c(O)c2)ccc1O` [Compound 6, 2-(3,4-dihydroxyphenyl)-N'-(4-hydroxy-3-methoxybenzylidene)acetohydrazide] displayed a melting point of 189 °C. Further, the inhibition at 500 µM in data set [1] was 86.4%.

`COc1cccc(C=NNC(=O)Cc2ccc(O)c(O)c2)c1O` [Compound 7, 2-(3,4-dihydroxyphenyl)-N'-(2-hydroxy-3-methoxybenzylidene)acetohydrazide] returned a melting point of 204 °C. Also, the inhibition at 500 µM in data set [1] was 91.7%.

The compound `COc1ccc(C=NNC(=O)Cc2ccc(O)c(O)c2)c(O)c1` [Compound 8, 2-(3,4-dihydroxyphenyl)-N'-(2-hydroxy-4-methoxybenzylidene)acetohydrazide] had a melting point of 206 °C. Also, the inhibition at 500 µM in data set [1] turned out to be 91%.

In the case of `CCOc1cc(C=NNC(=O)Cc2ccc(O)c(O)c2)ccc1O` [Compound 9, 2-(3,4-dihydroxyphenyl)-N'-(3-ethoxy-4-hydroxybenzylidene)acetohydrazide], the melting point came to 184 °C. Also, in data set [1], the inhibition at 500 µM is 83.3%.

As for `CCOc1ccc(C=NNC(=O)Cc2ccc(O)c(O)c2)c(O)c1` [Compound 10, 2-(3,4-dihydroxyphenyl)-N'-(4-ethoxy-2-hydroxybenzylidene)acetohydrazide], the melting point stood at 164 °C. Besides, the inhibition at 500 µM in data set [1] came out at 81.9%.

In turn, `Cc1ccc(C=NNC(=O)Cc2ccc(O)c(O)c2)cc1O` [Compound 11, 2-(3,4-dihydroxyphenyl)-N'-(3-hydroxy-4-methylbenzylidene)acetohydrazide] displayed a melting point of 210 °C. Further, the inhibition at 500 µM in data set [1] came out at 77.5%.

Take `COc1ccccc1C=NNC(=O)Cc1ccc(O)c(O)c1` [Compound 12, 2-(3,4-dihydroxyphenyl)-N'-(2-methoxybenzylidene)acetohydrazide]: the melting point is 190 to 193 °C. Besides, in data set [1], the inhibition at 500 µM is 96.7%.

The compound `COc1ccc(C=NNC(=O)Cc2ccc(O)c(O)c2)cc1` [Compound 13, 2-(3,4-dihydroxyphenyl)-N'-(4-methoxybenzylidene)acetohydrazide] registered a melting point of 198 °C. In data set [1], the inhibition at 500 µM came to 95.2%.

As to `COc1ccc(C=NNC(=O)Cc2ccc(O)c(O)c2)cc1OC` [Compound 14, 2-(3,4-dihydroxyphenyl)-N'-(3,4-dimethoxybenzylidene)acetohydrazide], the melting point stood at 210 °C. The inhibition at 500 µM in data set [1] turned out to be 92.2%.

With `CN(C)c1ccc(C=NNC(=O)Cc2ccc(O)c(O)c2)cc1` [Compound 15, (3,4-dihydroxyphenyl)-N'-(4-(dimethylamino)benzylidene)acetohydrazide], the melting point is 203 °C. In data set [1], the inhibition at 500 µM turned out to be 92.8%.

Regarding `Cc1ccc(C=NNC(=O)Cc2ccc(O)c(O)c2)cc1` [Compound 16, 2-(3,4-dihydroxyphenyl)-N'-(4-methylbenzylidene)acetohydrazide], the melting point came out at 201 °C. Besides, in data set [1], the inhibition at 500 µM turned out to be 84.1%.

The compound `O=C(Cc1ccc(O)c(O)c1)NN=Cc1cccc2ccccc12` [Compound 17, 2-(3,4-dihydroxyphenyl)-N'-(naphthalen-1-ylmethylene)acetohydrazide] registered a melting point of 210 °C. For the same compound, the inhibition at 500 µM in data set [1] was determined as 72%.

The compound `O=C(Cc1ccc(O)c(O)c1)NN=Cc1ccccc1Cl` [Compound 18, N'-(2-chlorobenzylidene)-2-(3,4-dihydroxyphenyl)acetohydrazide] had a melting point of 164 °C. For the same compound, the inhibition at 500 µM in data set [1] came to 85.3%.

`O=C(Cc1ccc(O)c(O)c1)NN=Cc1ccc(Cl)cc1` [Compound 19, N'-(4-chlorobenzylidene)-2-(3,4-dihydroxyphenyl)acetohydrazide] returned a melting point of 198 °C. In data set [1], the inhibition at 500 µM was 79.4%.

`O=C(Cc1ccc(O)c(O)c1)NN=Cc1cccc(Cl)c1` [Compound 20, N'-(3-chlorobenzylidene)-2-(3,4-dihydroxyphenyl)acetohydrazide] showed a melting point of 196 °C. Moreover, in data set [1], the inhibition at 500 µM turned out to be 84.4%.

The compound `O=C(Cc1ccc(O)c(O)c1)NN=Cc1c(Cl)cccc1Cl` [Compound 22, N'-(2,6-dichlorobenzylidene)-2-(3,4-dihydroxyphenyl)acetohydrazide] came in with a melting point of 262 °C. In data set [1], the “α-glucosidase inhibitory activity (in words)” value is reported as “no inhibitory activity”.

In turn, `O=C(Cc1ccc(O)c(O)c1)NN=Cc1ccc([N+](=O)[O-])cc1` [Compound 23, 2-(3,4-dihydroxyphenyl)-N'-(4-nitrobenzylidene)acetohydrazide] showed a melting point of 201 °C. The inhibition at 500 µM in data set [1] turned out to be 80.9%.

For the compound `O=C(Cc1ccc(O)c(O)c1)NN=Cc1ccccc1[N+](=O)[O-]` [Compound 24, 2-(3,4-dihydroxyphenyl)-N'-(2-nitrobenzylidene)acetohydrazide], the melting point was found to be 204 °C. Moreover, the inhibition at 500 µM in data set [1] came to 82.7%.

`O=C(Cc1ccc(O)c(O)c1)NN=Cc1cccc([N+](=O)[O-])c1` [Compound 25, 2-(3,4-dihydroxyphenyl)-N'-(3-nitrobenzylidene)acetohydrazide] showed a melting point of 206 °C. Also, the inhibition at 500 µM in data set [1] was 78.2%.

`O=Cc1ccc(C=NNC(=O)Cc2ccc(O)c(O)c2)cc1` [Compound 26, 2-(3,4-dihydroxyphenyl)-N'-(4-formylbenzylidene)acetohydrazide] showed a melting point of 204 °C.

Regarding `O=C(Cc1ccc(O)c(O)c1)NN=Cc1ccco1` [Compound 27, 2-(3,4-dihydroxyphenyl)-N'-(furan-2-ylmethylene)acetohydrazide], the melting point came out at 156 °C.

For `CSc1ccc(C=NNC(=O)Cc2ccc(O)c(O)c2)cc1` [Compound 28, 2-(3,4-dihydroxyphenyl)-N'-(4-(methylthio)benzylidene)acetohydrazide], the melting point was found to be 198 °C.

For the origin of these results see article PMC11102520, “Design, synthesis, molecular docking study, and α-glucosidase inhibitory evaluation of novel hydrazide–hydrazone derivatives of 3,4-dihydroxyphenylacetic acid” (Scientific Reports, 2024).
